Values quoted from earlier work, collected in patent US7741050B2, “Identification of agonistic autoantibodies” (Max-Delbrueck-Centrum fuer Molkulare Medizin, priority 2002, dated 2010).

Target: T1, AT1 receptor of cultivated cardiomyocytes (Rattus norvegicus, UniProt P25095)
T1 construct: can stimulate the AT1 receptor of cultivated cardiomyocytes; endogenous in cells; host or cells: primary cultivated cardiomyocytes of newborn rats
T1 sequence (P25095 1-359): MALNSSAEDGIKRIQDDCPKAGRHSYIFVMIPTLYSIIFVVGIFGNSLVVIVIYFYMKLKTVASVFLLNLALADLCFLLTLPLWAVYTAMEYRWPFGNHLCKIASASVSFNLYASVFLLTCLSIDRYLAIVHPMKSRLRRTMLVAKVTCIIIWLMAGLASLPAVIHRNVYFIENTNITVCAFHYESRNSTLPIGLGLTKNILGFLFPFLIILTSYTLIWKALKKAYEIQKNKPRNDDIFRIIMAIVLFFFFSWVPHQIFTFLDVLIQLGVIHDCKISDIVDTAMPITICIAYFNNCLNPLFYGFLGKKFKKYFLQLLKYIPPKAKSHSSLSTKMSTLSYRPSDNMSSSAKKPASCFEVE
Conditions: Losartan 1 μM added to cardiomyocytes stimulated by antibodies of preeclamptic women; cited from earlier work

CCCCc1nc(Cl)c(CO)n1Cc1ccc(-c2ccccc2-c2nn[nH]n2)cc1 [Losartan]
beats per minute: reduced
